Measured values: patent US5663201A, “Desferrioxamine-B salts” (CIBA-GEIGY Corporation, priority 1992, dated 1997)
Structures can show the parent of a compound that is named as a salt. Where two headings read alike, the source gives them in different places. One block for each compound: values may come before it.

How the values were obtained:
[1] = type: physicochemical; conditions: n-octanol/water, 5000 µM
Procedure: (§1) The partition coefficients of the salts prepared in Examples 1 to 5 between n-octanol and water are determined by the `shake-flask` method of Leo et at, Chem. Rev., 71(6), 525 (1971).
The n-octanol and aqueous phases are mutually saturated prior to conducting the experiment. The desferrioxamine-B sulphonic acid addition salt is dissolved in the aqueous phase at a concentration of 0.005 mol/l and the partition experiment is performed by shaking the vessel containing the two phases until an equilibrium has been achieved. […] After equilibrium has been achieved, the sample is centrifuged to enable phase separation. Both organic and aqueous phases are analysed for desferrioxamine-B content via extraction of an appropriate aliquot, quenching with an aqueous (for assay of the aqueous phase) or methanolic (for assay of the n-octanol phase) solution of FeCl3, and measurement of the absorption of the characteristic ferrioxamine-B chelate at ca. 450 nm. Respective calibration plots (absorbance vs. concentration of desferrioxamine-B sulphonic acid salt) for the assay of both aqueous and organic phases show a linear response over the concentration range studied. The results obtained are as follows: […]

[2] = type: physicochemical; conditions: n-octanol/phosphate buffer, pH 7.4
Procedure: as §1
The n-octanol and aqueous phases are mutually saturated prior to conducting the experiment. The desferrioxamine-B sulphonic acid addition salt is dissolved in the aqueous phase at a concentration of 0.005 mol/l and the partition experiment is performed by shaking the vessel containing the two phases until an equilibrium has been achieved. […] After equilibrium has been achieved, the sample is centrifuged to enable phase separation. Both organic and aqueous phases are analysed for desferrioxamine-B content via extraction of an appropriate aliquot, quenching with an aqueous (for assay of the aqueous phase) or methanolic (for assay of the n-octanol phase) solution of FeCl3, and measurement of the absorption of the characteristic ferrioxamine-B chelate at ca. 450 nm. Respective calibration plots (absorbance vs. concentration of desferrioxamine-B sulphonic acid salt) for the assay of both aqueous and organic phases show a linear response over the concentration range studied. The results obtained are as follows:
The partition coefficients of the salts prepared in Examples 1 to 5 between n-octanol and an aqueous phosphate buffer at pH7.4 having an ionic strength of 0.31 mol/l are determined using the procedure of Examples 6-10. The results obtained are as follows:
The use of n-octanol/aqueous media partition coefficients as a model for the lipophilicity of drugs is well established (see the abovementioned Leo et al reference). The aqueous phase in Examples 11 to 15 simulates physiological conditions.

[3] = intrinsic dissolution of tablets, Langenbucher flow-through apparatus; type: physicochemical; conditions: water, 25° C., listed as decanesulphonate
Procedure: Tablets are prepared from the salts of Examples 1 and 4 by compressing a mixture of 99 parts of the salt and 1 part of magnesium stearate in a 13mm die for 2 minutes under a pressure of 4×10^5 kPa. The intrinsic dissolution rates of the tablets are determined using a Langenbucher flow-through apparatus, with water at 25° C. as the dissolution medium. The amount of desferrioxamine-B dissolved in the medium is measured at intervals using a spectrophotometric assay at 215 nm.

[4] = system: Daudi cell line (B-cell lymphoma); assay: iron-chelation bioassay: growth inhibiting effect on cells through iron removal, [3H] Thymidine uptake; type: cell-based; conditions: 72 hours, Control (0 μM): Ex 18 22297, Ex 19 23897, listed as decanesulphonate
Procedure: The iron-chelating properties of salts of the invention in a biological system are determined by means of a bioassay in which the growth inhibiting effect of the salts on cells through iron removal is measured by the uptake of radioactively labelled thymidine into the cells. The bioassay is carried out using a Daudi cell line (B-cell lymphoma), a Roswell Park Memorial Institute (RPMI) 1640 medium containing 1 µM ferric citrate and supplements as low iron washing medium and RPM11640 together with 5% by weight of foetal calf serum as passaging medium.
The cells are fed 24 hours before use. They are washed twice in the low iron washing medium to remove any excess iron and diluted with this medium to a concentration of 0.2×10^6 cells/0.180 ml. To 0.180 ml aliquots are added 0.02 ml of solutions of the desferrioxamine-B salts under test in phosphate-buffered saline (PBS) to give concentrations ranging from a Control containing no salt to a […] solution. The cells are then incubated at 37° C. in an atmosphere containing 5% by volume of carbon dioxide for 72 hours, being pulsed for the last 8 hours of that time with labelled [^3 H] Thymidine at 5 micro Ci/ml. The resulting cells are harvested and their radioactive disintegrations are counted for 10 minutes. The results are shown in the table below as the average of 4 separate experiments (except the Control result in Example 18 which is the average of 3 separate experiments).

Partition Coefficient [1]: 0.366 | Partition Coefficient [2]: 0.060 | % Desferrioxaine-B salt dissolved ([3]; 1 min): 1.01% | % Desferrioxaine-B salt dissolved ([3]; 2 min): 1.65% | % Desferrioxaine-B salt dissolved ([3]; 5 min): 2.90% | % Desferrioxaine-B salt dissolved ([3]; 10 min): 4.67% | % Desferrioxaine-B salt dissolved ([3]; 15 min): 6.17% | % Desferrioxaine-B salt dissolved ([3]; 20 min): 7.50% | % Desferrioxaine-B salt dissolved ([3]; 30 min): 9.97% | % Desferrioxaine-B salt dissolved ([3]; 50 min): 14.21% | % Desferrioxaine-B salt dissolved ([3]; 75 min): 18.80% | % Desferrioxaine-B salt dissolved ([3]; 100 min): 22.92% | % Desferrioxaine-B salt dissolved ([3]; 125 min): 26.62% | % Desferrioxaine-B salt dissolved ([3]; 150 min): 30.13% | % Desferrioxaine-B salt dissolved ([3]; 175 min): 33.49% | % Desferrioxaine-B salt dissolved ([3]; 200 min): 36.85% | % Desferrioxaine-B salt dissolved ([3]; 225 min): 39.97% | % Desferrioxaine-B salt dissolved ([3]; 250 min): 42.94% | % Desferrioxaine-B salt dissolved ([3]; 275 min): 45.87% | % Desferrioxaine-B salt dissolved ([3]; 300 min): 48.81%
Compound: CC(=O)N(O)CCCCCNC(=O)CCC(=O)N(O)CCCCCNC(=O)CCC(=O)N(O)CCCCCN [Example 1, decane-1-sulphonate/salt of desferrioxamine-B]
Disintegrations Per Minute ([3H] Thymidine uptake) ([4]; 0.5 μM salt): 23603 Disintegrations Per Minute | Disintegrations Per Minute ([3H] Thymidine uptake) ([4]; 1 μM salt): 14161 Disintegrations Per Minute | Disintegrations Per Minute ([3H] Thymidine uptake) ([4]; 2 μM salt): 6847 Disintegrations Per Minute | Disintegrations Per Minute ([3H] Thymidine uptake) ([4]; 3 μM salt): 6599 Disintegrations Per Minute | Disintegrations Per Minute ([3H] Thymidine uptake) ([4]; 4 μM salt): 5445 Disintegrations Per Minute | Disintegrations Per Minute ([3H] Thymidine uptake) ([4]; 5 μM salt): 5139 Disintegrations Per Minute | Disintegrations Per Minute ([3H] Thymidine uptake) ([4]; 6 μM salt): 4382 Disintegrations Per Minute | Disintegrations Per Minute ([3H] Thymidine uptake) ([4]; 7.5 μM salt): 3262 Disintegrations Per Minute | Disintegrations Per Minute ([3H] Thymidine uptake) ([4]; 10 μM salt): 2172 Disintegrations Per Minute | Disintegrations Per Minute ([3H] Thymidine uptake) ([4]; 15 μM salt): 1101 Disintegrations Per Minute | Disintegrations Per Minute ([3H] Thymidine uptake) ([4]; 20 μM salt): 494 Disintegrations Per Minute

Partition Coefficient [1]: 0.008 | Partition Coefficient [2]: 0.006
Compound: CC(=O)N(O)CCCCCNC(=O)CCC(=O)N(O)CCCCCNC(=O)CCC(=O)N(O)CCCCCN [Example 2, butane-1-sulphonate salt of desferrioxamine-B]

Partition Coefficient [1]: 0.020 | Partition Coefficient [2]: 0.010
Compound: CC(=O)N(O)CCCCCNC(=O)CCC(=O)N(O)CCCCCNC(=O)CCC(=O)N(O)CCCCCN [Example 3, hexane-1-sulphonate salt of desferrioxamine-B]

Partition Coefficient [1]: 0.450 | Partition Coefficient [2]: 0.028
Compound: CC(=O)N(O)CCCCCNC(=O)CCC(=O)N(O)CCCCCNC(=O)CCC(=O)N(O)CCCCCN [Example 5, dodecane-1-sulphonate salt of desferrioxamine-B]
